Assay results published in US20210371463A1, “Modified Netrin-1 Peptides and Compositions for Cardioprotection” (The Regents of the University of California, priority 2018, published 2021).
Bridge positions count the residues as written; N and C are the ends. Ends that are not written are not given here. mini‑PEG = diethylene glycol

Test system: mouse hearts subjected to ischemia/reperfusion (I/R) injury
Experiment: Langendorff perfusion ischemia/reperfusion (I/R) injury, infarct size analysis (TTC staining)
Design: % MI Reduction: concentration or dose not given beside the values
Details: for % MI Reduction: vs. I/R Control; for % Improvement in MI Reduction: modified peptide vs. closest prior art peptide (V1-9aa, V2-10aa or V3-11aa); for Infarct size: fragments of prior art peptides, Control I/R 37.6±1.3%, Mean±SEM, p<0.001
Method: Male C57BL/6J mice (8-12 weeks old) were obtained from the Charles River Laboratories (Wilmington, Mass., USA). After anesthetized with intraperitoneal pentobarbitone (60 mg/kg), mouse hearts were harvested immediately and the aortas were cannulated with a 20-gauge stainless steel blunt needle and transferred to the Langendorff rig and perfused retrograde instantly with modified Krebs-Henseleit buffer (KHB) for 30 minutes as previously described. See Bouhidel et al. Front Biosci (Landmark Ed) 2014; 19:566-570, and Zhang et al., J Mol Cell Cardiol. 2010; 48:1060-1070. Then hearts were pre-perfused for 45 minutes with or without netrin-1 (100 ng/ml), or different peptide fragments at the same molar concentration 1.47 nmol/L as netrin-1, prior to being subjected to ischemia/reperfusion (I/R) injury (a 20-minute global ischemia followed by a 60-minute reperfusion with or without netrin-1 or different peptide fragments). Hearts were then harvested for analyses of infarct size. For post-conditioning treatment with peptide fragments, hearts underwent 40 minutes of KHB perfusion, 20 minutes of global ischemia, and a 60-minute reperfusion with different peptide fragments.
At the end of I/R protocol, hearts were sliced perpendicular to the long-axis of the heart at 1 mm intervals and stained with 1% triphenyl tetrazolium chloride (TTC) in PBS for 10 minutes at room temperature. After washing with PBS once, sections of the hearts will be fixed in 10% formalin overnight. The heart slices were then digitally photographed for planimetry using NIH Image 1.62. Infarct size is expressed as an infarct-to-risk zone ratio (the risk zone is the whole ventricular volume in this global ischemic model).
Densitometric data of western blotting was obtained by software Image J. Grouped data was analyzed by software Gradpad Prism δ. All values are expressed as Mean±SEM. Comparisons of more than two groups were performed using a one way ANOVA analysis with Newman-Keuls test as a post-hoc test. Statistical significance is set as p<0.05.

[1] = Table 2, modified netrin-1 peptides, I/R Control 43.1625, p < 0.001 vs. Control
[2] = Table 2, modified netrin-1 peptides
[3] = Table 1, prior art peptides, I/R Control 37.6

Substance	Infarct Size Mean (%) [1] [%]	% MI Reduction [2] [%]	% Improvement in MI Reduction	Infarct Size Mean (%) [3] [%]	% MI Reduction (Table 1, prior art peptides) [%]	Infarct size [%]
(mini-PEG)-CDCRHNTAG ({mini‑PEG}-CDCRHNTAG; cysteine pairing not given here) [V1P]	10.0100	77	(77 − 55)/55 = 40%	–	–	–
(mini-PEG)-CLNCRHNTAG ({mini‑PEG}-CLNCRHNTAG; cysteine pairing not given here) [V2P]	18.3315	58	(58 − 51)/51 = 14%	–	–	–
(mini-PEG)-CPCKDGVTIGIT ({mini‑PEG}-CPCKDGVTIGIT; cysteine pairing not given here) [V3P]	12.9700	70	–	–	–	–
CDCRHNTAG (disulfide 1-3) [V1C]	11.2700	74	(74 − 55)/55 = 35%	–	–	–
CDCRHNTAG (not fully specified (bridges); cysteine pairing not given here) [V1-9aa, reference compound]	–	–	–	16.8	55	16.8±2.2
CLNCRHNTAG (Peptide based on human Netrin-1 sequence) [V2-10aa, reference compound]	–	–	–	18.6	51	18.6±1.7
CPCKDGVTGIT (Peptide based on human Netrin-1 sequence) [V3-11aa, reference compound]	–	–	–	16.7	56	16.7±3.0
SDCRHNTAG (Peptide based on human Netrin-1 sequence) [V1S]	12.7750	71	(71 − 55)/55 = 29%	–	–	–
TDCRHNTAG [V1T]	15.4650	64	(64 − 55)/55 = 16%	–	–	–
